According to the supplement of paper PMC11061612:

How the values were obtained:
SN-38 = compound: CCc1c2c(nc3ccc(O)cc13)-c1cc3c(c(=O)n1C2)COC(=O)[C@]3(O)CC [SN-38]; settings: max 0.3 µM
Method in brief: (§1)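 In 1536-well plates, cancer cell lines in 7.5 μl DMEM/F12 or RPMI with 10% FBS spent 24 hours at 37°C and 5% CO2 and were then dosed for 72 hours with final DMSO typically 0.2%. Viability was read by CellTiter-Glo 2.0 luminescence and scaled between blank-well and DMSO-well means. The single-agent IC50 was fitted from dose responses using a logistic curve in a non-linear mixed effects model, and that logistic curve had two parameters.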

AZD8186 = compound: C[C@@H](Nc1cc(F)cc(F)c1)c1cc(C(=O)N(C)C)cc2c(=O)cc(N3CCOCC3)oc12 [AZD8186]; settings: max 10 µM
Method in brief: as §1

AZD1775 = compound: C=CCn1c(=O)c2cnc(Nc3ccc(N4CCN(C)CC4)cc3)nc2n1-c1cccc(C(C)(C)O)n1 [AZD1775]; settings: max 3 µM
Method in brief: as §1

AZD5991 = compound: Cc1c2c(nn1C)CSCc1cc(n(C)n1)CSc1cc(c3ccccc3c1)OCCCc1c(C(=O)O)n(C)c3c-2c(Cl)ccc13 [AZD5991]; settings: max 1 µM
Method in brief: as §1

AZD7648 = compound: Cc1cc2ncnn2cc1Nc1ncc2c(n1)n(C1CCOCC1)c(=O)n2C [AZD7648]; settings: max 10 µM
Method in brief: as §1

Prexasertib = compound: COc1cccc(OCCCN)c1-c1cc(Nc2cnc(C#N)cn2)n[nH]1 [Prexasertib]; settings: max 1 µM
Method in brief: as §1

AZD5153 = compound: COc1nnc2ccc(N3CCC(c4ccc(OCCN5CCN(C)C(=O)[C@H]5C)cc4)CC3)nn12 [AZD5153]; settings: max 1 µM
Method in brief: as §1

Olaparib = compound: O=C(c1cc(Cc2n[nH]c(=O)c3ccccc23)ccc1F)N1CCN(C(=O)C2CC2)CC1 [Olaparib]; settings: max 10 µM
Method in brief: as §1

Carboplatin = compound: C1CC(C1)(C(=O)[O-])C(=O)[O-].N.N.[Pt+2] [Carboplatin]; settings: max 10 µM
Method in brief: as §1

AZD6738 = compound: C[C@@H]1COCCN1C2=NC(=NC(=C2)C3(CC3)[S@](=N)(=O)C)C4=C5C=CNC5=NC=C4 [AZD6738]; settings: max 10 µM
Method in brief: as §1

AZD1390 = compound: CC(C)n1c(=O)n(C)c2cnc3cc(F)c(-c4ccc(OCCCN5CCCCC5)nc4)cc3c21 [AZD1390]; settings: max 0.3 µM
Method in brief: as §1

Palbociclib = compound: CC(=O)c1c(C)c2cnc(Nc3ccc(N4CCNCC4)cn3)nc2n(C2CCCC2)c1=O [Palbociclib]; settings: max 10 µM
Method in brief: as §1

Alisertib = compound: COc1cc(Nc2ncc3c(n2)-c2ccc(Cl)cc2C(c2c(F)cccc2OC)=NC3)ccc1C(=O)O [Alisertib]; settings: max 10 µM
Method in brief: as §1

Doxorubicin = compound: COc1cccc2c1C(=O)c1c(O)c3c(c(O)c1C2=O)C[C@@](O)(C(=O)CO)C[C@@H]3O[C@H]1C[C@H](N)[C@H](O)[C@H](C)O1 [Doxorubicin]; settings: max 1 µM
Method in brief: as §1

Paclitaxel = compound: CC(=O)O[C@H]1C(=O)[C@@]2(C)[C@H]([C@H](OC(=O)c3ccccc3)[C@]3(O)C[C@H](OC(=O)[C@H](O)[C@@H](NC(=O)c4ccccc4)c4ccccc4)C(C)=C1C3(C)C)[C@]1(OC(C)=O)CO[C@@H]1C[C@@H]2O [Paclitaxel]; settings: max 3 µM
Method in brief: as §1

AZD0156 = compound: CN(C)CCCOc1ccc(-c2ccc3ncc4c(c3c2)n(C2CCOCC2)c(=O)n4C)cn1 [AZD0156]; settings: max 3 µM
Method in brief: as §1

AZD4320 = compound: CN(CC[C@H](CSC1=CC=CC=C1)NC2=C(C=C(C=C2)S(=O)(=O)NC(=O)C3=CC=C(C=C3)N4CCC(CC4)[C@H](C5=CC=CC=C5C6=CC=C(C=C6)Cl)O)S(=O)(=O)C(F)(F)F)CCO [AZD4320]; settings: max 1 µM
Method in brief: as §1

Etoposide = compound: COc1cc([C@@H]2c3cc4c(cc3[C@@H](O[C@@H]3O[C@@H]5CO[C@@H](C)O[C@H]5[C@H](O)[C@H]3O)[C@H]3COC(=O)[C@H]23)OCO4)cc(OC)c1O [Etoposide]; settings: max 10 µM
Method in brief: as §1

SRA737 = compound: N#Cc1cnc(Nc2cc(NC[C@H]3CNCCO3)c(C(F)(F)F)cn2)cn1 [SRA737]; settings: max 10 µM
Method in brief: as §1

Dasatinib = compound: CC1=C(C(=CC=C1)Cl)NC(=O)C2=CN=C(S2)NC3=CC(=NC(=N3)C)N4CCN(CC4)CCO [Dasatinib]; settings: max 2 µM
Method in brief: as §1

Taselisib = compound: Cc1nc(-c2cn3c(n2)-c2ccc(-c4cnn(C(C)(C)C(N)=O)c4)cc2OCC3)n(C(C)C)n1 [Taselisib]; settings: max 10 µM
Method in brief: as §1

5-Fluorouracil = compound: O=c1[nH]cc(F)c(=O)[nH]1 [5-Fluorouracil]; settings: max 20 µM
Method in brief: as §1

Crizotinib = compound: C[C@@H](Oc1cc(-c2cnn(C3CCNCC3)c2)cnc1N)c1c(Cl)ccc(F)c1Cl [Crizotinib]; settings: max 10 µM
Method in brief: as §1

MK-2206 = compound: NC1(c2ccc(-c3nc4ccn5c(=O)[nH]nc5c4cc3-c3ccccc3)cc2)CCC1 [MK-2206]; settings: max 10 µM
Method in brief: as §1

Gemcitabine = compound: Nc1ccn([C@@H]2O[C@H](CO)[C@@H](O)C2(F)F)c(=O)n1 [Gemcitabine]; settings: max 0.3 µM
Method in brief: as §1

Venetoclax = compound: CC1(C)CCC(CN2CCN(c3ccc(C(=O)NS(=O)(=O)c4ccc(NCC5CCOCC5)c([N+](=O)[O-])c4)c(Oc4cnc5[nH]ccc5c4)c3)CC2)=C(c2ccc(Cl)cc2)C1 [Venetoclax]; settings: max 1 µM
Method in brief: as §1

[1] = compound: O=C(Nc1ccc2[nH]nc(-c3ccncc3)c2c1)[C@@H]1CCN(CC(=O)N2CCN(c3ccc(-c4ncccn4)cc3)CC2)C1; settings: max 5 µM
Method in brief: as §1

AZD5363 = compound: C1CN(CCC1(C(=O)N[C@@H](CCO)C2=CC=C(C=C2)Cl)N)C3=NC=NC4=C3C=CN4 [AZD5363]; settings: max 10 µM
Method in brief: as §1

Savolitinib = compound: C[C@@H](c1ccc2nccn2c1)n1nnc2ncc(-c3cnn(C)c3)nc21 [Savolitinib]; settings: max 1 µM
Method in brief: as §1

Lapatinib = compound: CS(=O)(=O)CCNCc1ccc(-c2ccc3ncnc(Nc4ccc(OCc5cccc(F)c5)c(Cl)c4)c3c2)o1 [Lapatinib]; settings: max 10 µM
Method in brief: as §1

Selumetinib = compound: Cn1cnc2c(F)c(Nc3ccc(Br)cc3Cl)c(C(=O)NOCCO)cc21 [Selumetinib]; settings: max 10 µM
Method in brief: as §1

Gefitinib = compound: COc1cc2ncnc(Nc3ccc(F)c(Cl)c3)c2cc1OCCCN1CCOCC1 [Gefitinib]; settings: max 10 µM
Method in brief: as §1

Trametinib = compound: CC(=O)Nc1cccc(-n2c(=O)n(C3CC3)c(=O)c3c(Nc4ccc(I)cc4F)n(C)c(=O)c(C)c32)c1 [Trametinib]; settings: max 1 µM
Method in brief: as §1

SG3199 = compound: CC1=CN2[C@@H](C1)C=NC3=CC(=C(C=C3C2=O)OC)OCCCCCOC4=C(C=C5C(=C4)N=C[C@@H]6CC(=CN6C5=O)C)OC [SG3199]; settings: max 0.001 µM
Method in brief: as §1

AZD2811 = compound: CCN(CCO)CCCOc1ccc2c(Nc3cc(CC(=O)Nc4cccc(F)c4)[nH]n3)ncnc2c1 [AZD2811]; settings: max 1 µM
Method in brief: as §1

Cell Line: NCI-H1792 (Lung Adenocarcinoma)
- IC50, cell viability 72 h (SN-38): 159 nM
- IC50, cell viability 72 h (AZD8186): > 10000 nM
- IC50, cell viability 72 h (AZD1775): 730 nM
- IC50, cell viability 72 h (AZD5991): > 1000 nM
- IC50, cell viability 72 h (AZD7648): > 10000 nM
- IC50, cell viability 72 h (Prexasertib): 97.9 nM
- IC50, cell viability 72 h (AZD5153): 561 nM
- IC50, cell viability 72 h (Olaparib): > 10000 nM
- IC50, cell viability 72 h (Carboplatin): > 10000 nM
- IC50, cell viability 72 h (AZD6738): 4810 nM
- IC50, cell viability 72 h (AZD1390): > 300 nM
- IC50, cell viability 72 h (Palbociclib): > 10000 nM
- IC50, cell viability 72 h (Alisertib): 5110 nM
- IC50, cell viability 72 h (Doxorubicin): 558 nM
- IC50, cell viability 72 h (Paclitaxel): 5.92 nM
- IC50, cell viability 72 h (AZD0156): > 3000 nM
- IC50, cell viability 72 h (AZD4320): > 1000 nM
- IC50, cell viability 72 h (Etoposide): 7110 nM
- IC50, cell viability 72 h (SRA737): > 10000 nM
- IC50, cell viability 72 h (Dasatinib): 1550 nM
- IC50, cell viability 72 h (Taselisib): 4880 nM
- IC50, cell viability 72 h (5-Fluorouracil): 7720 nM
- IC50, cell viability 72 h (Crizotinib): 6070 nM
- IC50, cell viability 72 h (MK-2206): > 10000 nM
- IC50, cell viability 72 h (Gemcitabine): 34.5 nM
- IC50, cell viability 72 h (Venetoclax): > 1000 nM
- IC50, cell viability 72 h [1]: > 5000 nM
- IC50, cell viability 72 h (AZD5363): > 10000 nM
- IC50, cell viability 72 h (Savolitinib): > 1000 nM
- IC50, cell viability 72 h (Lapatinib): > 10000 nM
- IC50, cell viability 72 h (Selumetinib): > 10000 nM
- IC50, cell viability 72 h (Gefitinib): > 10000 nM
- IC50, cell viability 72 h (Trametinib): 83.5 nM
- IC50, cell viability 72 h (SG3199): > 1 nM
- IC50, cell viability 72 h (AZD2811): > 1000 nM
